Measured values from patent US5750536A, “Tropyl 7-azaindol-3-ylcarboxyamides as antitussive agent” (priority 1993, dated 1998).
“Also recorded” adds a separate entry of the source. Where two headings read alike, the source gives them in different places.

Assays:
5-HT1 = assay: Binding test 5-HT1; conditions: at 3.6 10^-5 M
Excerpt: Compounds A and Compounds B of the present invention, which are examples of endo-tropyl and quinuclidylamide of 7-azaindolyl-3-carboxylic acid respectively have been studied "in vitro" for their interaction with the 5-HT1, 5-HT2 and 5-HT3 receptors.
Binding Test: 5-HT1 5-HT2
% of inhibition at 3.6 10^-5 M

5-HT2 = assay: Binding test 5-HT2; conditions: at 3.6 10^-5 M
5-HT3 = target: T1, 5-HT3 (Homo sapiens, UniProt P46098); assay: Binding test 5-HT3
T1 sequence (P46098 24-478): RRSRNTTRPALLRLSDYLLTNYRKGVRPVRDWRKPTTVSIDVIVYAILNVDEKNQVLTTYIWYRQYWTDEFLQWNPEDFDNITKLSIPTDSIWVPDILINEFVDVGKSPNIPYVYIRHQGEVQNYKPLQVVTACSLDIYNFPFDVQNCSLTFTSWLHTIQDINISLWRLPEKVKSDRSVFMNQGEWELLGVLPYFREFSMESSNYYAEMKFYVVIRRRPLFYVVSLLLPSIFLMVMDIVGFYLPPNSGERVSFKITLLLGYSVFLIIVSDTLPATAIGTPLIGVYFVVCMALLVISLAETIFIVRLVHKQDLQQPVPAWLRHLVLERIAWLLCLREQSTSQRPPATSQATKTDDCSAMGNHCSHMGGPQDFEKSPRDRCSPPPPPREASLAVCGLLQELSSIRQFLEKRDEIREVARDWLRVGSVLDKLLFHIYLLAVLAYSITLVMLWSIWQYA

α1 = assay: Displacement of selective ligand from α1 receptor; type: binding; conditions: 10^-5 M; 10 µM
Excerpt: (§1) The interaction of Compounds A and B with other receptors (α1, α2, benzodiazepine (o bzd), GABA A, δ) in comparison to the typical 5-HT3 antagonist Ondastron and BRL 24682 has been studied and for each case the displacement % of the single selective ligand from the corresponding receptor at concentration 10^-5 M of the compounds under examination, has been evaluated.

GABA A = assay: Displacement of selective ligand from GABA A receptor; type: binding; conditions: for Dispacement percentage Gaba A: 10^-5 M, 10 µM
σ = assay: Displacement of selective ligand from σ receptor (δ in text); type: binding; conditions: 10^-5 M; 10 µM
[1] = tested on: coughing stimulus by ac. citric; assay: Inhibition of cough induced by inhalation of citric acid; type: in vivo, guinea pigs; conditions: for % inhibition of the coughing stimulus by ac. citric: guinea pigs, single dose 100 mg/kg; for ED50: Cavia porcellus, po, read-out: ID50 coughing stimulus ac. citric
Protocol: (§2) Besides these differences "in vitro" on the receptor behaviour great differences has been evidenced "in vivo" in the tussive stimulus inhibition provoked by inhalation of irritant citric acid as well as capsaicine aqueous solutions.
(§3) The compounds have been tested in guinea pigs in comparison to codeine, used as standard compound, at the single dose of 100 mg/kg according to the technique of Charlier et al., (Arch. Int. Pharmacodyn., 134, 306, 1961) which has been slightly modified.
(§4) The percent reduction evaluated in the number of short coughs after administration of the compound under examination taken in comparison to the number of short coughs observed in each of the animals to which the compound was administered, have been noted.
(§5) For these compounds as well as for the most interesting reference compounds the dose inhibiting 50% of the short coughs (ID50) induced either by citric acid or capsaicine has been determined.

[2] = tested on: coughing stimulus by capsaicin; assay: Inhibition of cough induced by inhalation of capsaicin; type: in vivo, guinea pigs; conditions: for % inhibition of the coughing stimulus by capsaicin: guinea pigs, single dose 100 mg/kg; for ED50: Cavia porcellus, po, read-out: ID50 coughing stimulus capsaicin
Protocol: as §2, §3, §4, §5

[3] = tested on: sleeping time induced by barbiturates; assay: Increase of sleeping time induced by barbiturates; type: in vivo, mice; conditions: for sleeping time increase: mice, barbiturate-induced sleep
Excerpt: For each of the compounds under examination it has been also tested the effect on the increase of the sleeping time induced by barbiturates. […]

[4] = tested on: coughing stimulus by 2N H2 SO4; assay: Inhibition of cough induced by 2N H2SO4; type: in vivo, guinea pigs; conditions: Cavia porcellus, po, read-out: ID50 coughing stimulus 2N H2 SO4
[5] = tested on: cough induced by capsaicine; assay: Antitussive effect, capsaicine aqueous solution as irritant (Table V); type: in vivo, mice; conditions: os; for short coughs average n° ± s.e. / short coughs inhib. %: single dose 100 mg/kg, mice
Protocol: (§6) Further compound A (N-endo-8-methyl-8-azabicyclo [3,2,1] oct-3-yl)-7-azaindolyl-3-carboxamide has been tested for its antitussive effect in comparison to the closest compound belonging to the class of compounds of Japanese Kokai Tokkyo Koho JP 04 21 681, i.e., 8-methyl-8-azabicyclo [3,2,1] oct-3-yl)-1-methyl-7-azaindolyl-3-carboxamide. The compounds were administered by os at a single dose of 100 mg/kg on mice using as irritant agent capsaicine aqueous solution according to the previous mentioned technique.
as §6, with “.vertline.3,2,1.vertline.” for “[3,2,1]”, “antitussiv” for “antitussive”, “Jpn.” for “Japanese”, “i.e. 8-methyl-8-azabicliclo .vertline.3,2,1.vertline.” for “i.e., 8-methyl-8-azabicyclo [3,2,1]”

α2 = assay: Displacement of selective ligand from α2 receptor; type: binding; conditions: 10^-5 M; 10 µM
Excerpt: as §1

[6] = tested on: extra vasation by capsaicine; assay: Protection from capsaicine extravasation (Evans bleu); type: in vivo
Excerpt: It is assumed that Capsaicine releases substance P from the peripheral nerve endings of the sensitive fibers C and determines the necrosis of the same. It is known that capsaicine administration provokes the formation of an exudate (extra vasation by capsaicine) which can be evaluated by concomitant Evans bleu administration.

[7] = tested on: benzodiazepine (bdz) receptor; assay: Displacement of selective ligand from benzodiazepine receptor; type: binding
Excerpt: as §1

[8] = tested on: coughing stimulus by capsaicin; assay: Inhibition of cough induced by inhalation of capsaicin; type: in vivo; conditions: guinea pigs
Acute oral toxicity = conditions: mouse, in vivo, mice
Protocol: The compounds of the invention may be administered by oral, sublingual, endovenous, subcutaneous, intramuscular, rectal route and by inhalation. The preferred doses vary from about 0.05 to about 15 mg/kg/die, depending on the conditions, weight, age of the patient and on the administration route. Higher dosages of the compounds of the invention, even for a prolonged period of time, have no contraindication because of their very low toxicity.

O=C(NC1CN2CCC1CC2)c1c[nH]c2ncccc12 (stereo not shown) [Compound B, N-(1-azabicyclo[2.2.2]oct-3-yl)-7-azaindolyl-3-carboxamide]
% of inhibition 5-HT1 (5-HT1): 37.0% | % of inhibition 5-HT2 (5-HT2): 3.9% | IC50 (5-HT3): 300 nM | Dispacement percentage α1 (α1): 7% | interaction towards GABA A receptor (in words) (GABA A): definitely weak or absent | Dispacement percentage Gaba A (GABA A): 6.7% | Dispacement percentage σ (σ): 26% | % inhibition of the coughing stimulus by ac. citric [1]: 46.0% | % inhibition of the coughing stimulus by capsaicin [2]: 21.0% | sleeping time increase ([3]; oral, single dose 100 mg/kg): -7

COc1ccc2c3c1O[C@H]1[C@@H](O)C=C[C@H]4[C@@H](C2)N(C)CC[C@@]341 [Codeine, reference compound]
ED50 [1]: 65 mg/kg | % inhibition of the coughing stimulus by ac. citric [1]: 63.2% | ED50 [2]: 74 mg/kg | % inhibition of the coughing stimulus by capsaicin [2]: 58.4% | sleeping time increase ([3]; oral, single dose 100 mg/kg): +106.4 | ED50 [4]: 102 mg/kg

CN1C2CCC1CC(NC(=O)c1cn(C)c3ncccc13)C2 (stereo not shown) [8-methyl-8-azabicyclo [3,2,1] oct-3-yl)-1-methyl-7-azaindolyl-3-carboxamide, reference compound]
short coughs average n° ± s.e. [5]: 6.5 ± 0.7 | short coughs inhib. % [5]: 6%

Cc1nccn1CC1CCc2c(c3ccccc3n2C)C1=O (racemic) [Ondasetron, reference compound]
% of inhibition 5-HT1 (5-HT1): 7.6% | Dispacement percentage α1 (α1): 72% | Dispacement percentage α2 (α2): 30% | interaction towards GABA A receptor (in words) (GABA A): aspecific | Dispacement percentage Gaba A (GABA A): 38% | Dispacement percentage σ (σ): 45% | ED50 ([1]; os, 95% confidence): 209 mg/kg | % inhibition of the coughing stimulus by ac. citric [1]: 30.5% | ED50 ([2]; os, 95% confidence): 97 mg/kg | % inhibition of the coughing stimulus by capsaicin [2]: 50.5% | sleeping time increase ([3]; at the dose of 10 mg/kg): -8 | protection from capsaicine extravasation (in words) ([6]; 10 mg/kg i.p.): Solely Compound A and not Ondasetron has been found to give a 42% protection

COc1cc(N)c(Cl)cc1C(=O)N[C@H]1C[C@H]2CC[C@@H](C1)N2C [BRL 24682, N-(endo-8-methyl-8-azabicyclo-[3.2.1]oct-3-yl)-2-methoxy-4-amino-5-chlorobenzamide, reference compound]
Dispacement percentage α1 (α1): 28% | Dispacement percentage α2 (α2): 16% | interaction with benzodiazepine receptor (in words) [7]: high interaction with the benzodiazepine and GABA A receptors | Dispacement percentage bdz ([7]; 10^-5 M, 10 µM): 98% | interaction towards GABA A receptor (in words) (GABA A): high interaction with the benzodiazepine and GABA A receptors | Dispacement percentage Gaba A (GABA A): 89% | Dispacement percentage σ (σ): 0% | % inhibition of the coughing stimulus by ac. citric [1]: 44.1% | sleeping time increase ([3]; oral, single dose 100 mg/kg): +34.8

OC[C@@H](O)CN1CCN(c2ccccc2)CC1 [Levodropropyzina]
ED50 ([1]; os, 95% confidence): 151 mg/kg | ED50 ([2]; os, 95% confidence): 145 mg/kg | ED50 ([4]; os, 95% confidence): 265 mg/kg

COc1ccccc1CN[C@H]1C2CCN(CC2)[C@H]1C(c1ccccc1)c1ccccc1 (relative stereo) [CP 96 345]
short cough inhibition, capsaicin ([8]; 10 mg/kg intraperitoneal): 26% | short cough inhibition, capsaicin ([8]; 40 mg/kg intraperitoneal): 42%

CN1[C@@H]2CC[C@H]1C[C@@H](NC(=O)c1c[nH]c3ncccc13)C2 [Compound A, N-(endo-8-methyl-8-azabicyclo[3.2.1]oct-3-yl)-7-azaindolyl-3-carboxamide]
% of inhibition 5-HT1 (5-HT1): 0.0% | % of inhibition 5-HT2 (5-HT2): 8.6% | IC50 (5-HT3): 3000 nM | interaction with 5-HT3 receptors (in words) (5-HT3): very weak interaction with 5-HT3 receptors | interaction with 5-HT3 receptors relative to Compound B (in words) (5-HT3; vs Compound B): logarithmically lower than that of Compound B | interaction with 5-HT3 receptors relative to Ondasetron (times lower) (5-HT3; vs Ondasetron): 1,000 times | Dispacement percentage α1 (α1): 13% | interaction towards GABA A receptor (in words) (GABA A): unusual ability of a double interaction, apparently selective, towards GABA A and δ receptors | Dispacement percentage Gaba A (GABA A): 83% | Dispacement percentage σ (σ): 70% | ED50 [1]: 57 mg/kg | antitussive effect, citric acid (in words) ([1]; guinea pig, in vivo): depends on the dose administered; also recorded: at least equiactive as codeine | % inhibition of the coughing stimulus by ac. citric [1]: 61.7% | ED50 [2]: 51 mg/kg | antitussive effect, capsaicin (in words) ([2]; guinea pig, in vivo): depends on the dose administered; also recorded: at least equiactive as codeine | % inhibition of the coughing stimulus by capsaicin [2]: 76.30% | sleeping time increase ([3]; oral, single dose 100 mg/kg): -28.9 | increase of the sleeping time induced by barbiturates (in words) ([3]; mouse, in vivo): does not show any increase of the sleeping time induced by barbiturates | protection from capsaicine extravasation ([6]; 10 mg/kg intraperitoneal, vs non-treated animals): 42% | antitussive effect, Table V (in words) ([5]; 100 mg/kg): effective as an antitussive compound; also recorded: effectiveness of compound A as antitussive compound | short coughs average n° ± s.e. [5]: 1.8 ± 0.5 | short coughs inhib. % [5]: 75% | LD50 (Acute oral toxicity): 1000 mg/kg
